Assay results published in patent US7863302B2, “Compounds and methods for modulating FX-receptors” (Eli Lilly and Company, priority 2006, dated 2011).
pEC50: −log10 of the molar value.

Key:
[1] = target: T1, human FXR ligand-binding domain (Homo sapiens, UniProt Q96RI1); experiment: FXR-SRC-1 Cofactor Recruitment Assay (Alpha Screen); type: biochemical; conditions: SRC-1 FXR interaction, 4 hours at room temperature
T1 construct: 6-HIS
T1 sequence (Q96RI1 242-472 isoform Q96RI1-2 limits assumed): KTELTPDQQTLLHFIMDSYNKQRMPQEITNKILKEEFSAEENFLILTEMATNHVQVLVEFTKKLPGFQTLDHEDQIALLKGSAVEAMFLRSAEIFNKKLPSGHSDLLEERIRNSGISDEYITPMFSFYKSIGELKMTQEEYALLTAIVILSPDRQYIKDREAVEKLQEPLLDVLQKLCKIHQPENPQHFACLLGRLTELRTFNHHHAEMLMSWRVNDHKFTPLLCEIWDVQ
T1 sequence (Q15788 600-774 partner limits assumed): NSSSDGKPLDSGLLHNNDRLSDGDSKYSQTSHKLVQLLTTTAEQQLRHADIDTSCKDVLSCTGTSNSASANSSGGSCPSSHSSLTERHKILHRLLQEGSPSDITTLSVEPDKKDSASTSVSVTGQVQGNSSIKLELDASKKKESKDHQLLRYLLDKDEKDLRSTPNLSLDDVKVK
Description: FXR-SRC-1 Cofactor Recruitment Assay
Compounds are tested in concentration-response curves by an FXR-SRC-1 Cofactor Recruitment assay using the Alpha (Amplified Luminescent Proximity Homogeneous Assay) Screen technology according to the manufacturer instructions (Perkin Elmer). Briefly, purified 6-HIS-tagged human FXR ligand-binding domain (amino acids 242-472), purified GST-tagged human SRC-1 nuclear receptor-interacting domain (amino acids 220-394), Nickel Chelate donor beads (Perkin Elmer) and Anti-GST antibody acceptor beads (Perkin Elmer) are mixed together and 12 μL per well is aliquoted into 384 well plates. Add compounds in 3 μL per well for a total assay volume of 15 μL and incubate at room temperature in the dark for 4 hours. After incubation, compounds that bind FXR and induce the interaction between the FXR and SRC-1 would bring the two bead types into proximity generating luminescence that is quantified using a Packard Fusion instrument. Calculate EC50 values for each test compound. Compounds of the invention are found to be effective in the SRC-1 FXR interaction assay with EC50 of about 365-3000 nM.

LDLR−/− mice = experiment: LDLR−/− Serum Lipid Modulation; type: in vivo; conditions: 10 mg/kg once daily by oral gavage for seven days, male LDLR−/− mice on western diet
Description: LDLR−/− Serum Lipid Modulation
Acquire LDLR−/− mice from Jackson Laboratories (Stock number 002207, Bar Harbor, Me., USA). Acclimate animals for one week prior to study initiation. House mice individually in polycarbonate cages with filter tops, and maintain mice on a 12:12 hour light-dark cycle (lights on at 6:00 AM) at 21° C. Provide deionized water ad libitum and maintain for two weeks on ‘western diet’ TD 98137 Diet (42% fat, 0.15% cholesterol, Harlan Teklad) ad libitum. Optimize groups of five ten-week-old male LDLR−/− mice based on serum triglyceride and cholesterol levels. Dose groups once daily by oral gavage with various doses of the test compound for seven days. At the end of the seven-day dosing period, collect blood by tail clip for clinical chemistry assessment. Measure serum triglycerides, glucose, and total cholesterol using standard clinical chemistry instrumentation and reagents (Roche Diagnostic, Indianapolis, Ind., USA). Asphyxiate mice in a CO2 chamber. Perform cardiac puncture to collect blood samples for serum FPLC analysis. Assay pooled serum samples for lipoprotein cholesterol fraction values (VLDL, LDL, HDL) by separation on a size exclusion column (Superose® 6HR, Pharmacia Biotech AB, Uppsala, Sweden) with in-line determination of cholesterol.

pEC50 [1]: 5.89
Compound: Cc1cc(OCc2c(-c3ccccc3OC(F)(F)F)noc2C2CC2)ccc1-c1ccc2c(C(=O)O)cn(C)c2c1 [Example 7, 6-{4-[5-Cyclopropyl-3-(2-trifluoromethoxy-phenyl)-isoxazol-4-ylmethoxy]-2-methyl-phenyl}-1-methyl-1H-indole-3-carboxylic acid]
lowers total cholesterol (LDLR−/− mice): 63%
lowers triglycerides (LDLR−/− mice): 61%
